From ChEMBL document CHEMBL1201862, “PubChem BioAssay data set” (2004)
One block for each compound: values may come before it. Activity calls are given as the source filed them.

Experiments:
[1] = biological target: T1, 1-phosphatidylinositol 4,5-bisphosphate phosphodiesterase gamma-1 (Homo sapiens, UniProt P19174); test: Counterscreen for inhibitors of phospholipase C isozymes (PLC-B3): Fluorescence-based biochemical high throughput dose response assay to identify inhibitors of phospholipase C isozymes (PLC-gamma1).
T1 sequence (P19174 whole entry): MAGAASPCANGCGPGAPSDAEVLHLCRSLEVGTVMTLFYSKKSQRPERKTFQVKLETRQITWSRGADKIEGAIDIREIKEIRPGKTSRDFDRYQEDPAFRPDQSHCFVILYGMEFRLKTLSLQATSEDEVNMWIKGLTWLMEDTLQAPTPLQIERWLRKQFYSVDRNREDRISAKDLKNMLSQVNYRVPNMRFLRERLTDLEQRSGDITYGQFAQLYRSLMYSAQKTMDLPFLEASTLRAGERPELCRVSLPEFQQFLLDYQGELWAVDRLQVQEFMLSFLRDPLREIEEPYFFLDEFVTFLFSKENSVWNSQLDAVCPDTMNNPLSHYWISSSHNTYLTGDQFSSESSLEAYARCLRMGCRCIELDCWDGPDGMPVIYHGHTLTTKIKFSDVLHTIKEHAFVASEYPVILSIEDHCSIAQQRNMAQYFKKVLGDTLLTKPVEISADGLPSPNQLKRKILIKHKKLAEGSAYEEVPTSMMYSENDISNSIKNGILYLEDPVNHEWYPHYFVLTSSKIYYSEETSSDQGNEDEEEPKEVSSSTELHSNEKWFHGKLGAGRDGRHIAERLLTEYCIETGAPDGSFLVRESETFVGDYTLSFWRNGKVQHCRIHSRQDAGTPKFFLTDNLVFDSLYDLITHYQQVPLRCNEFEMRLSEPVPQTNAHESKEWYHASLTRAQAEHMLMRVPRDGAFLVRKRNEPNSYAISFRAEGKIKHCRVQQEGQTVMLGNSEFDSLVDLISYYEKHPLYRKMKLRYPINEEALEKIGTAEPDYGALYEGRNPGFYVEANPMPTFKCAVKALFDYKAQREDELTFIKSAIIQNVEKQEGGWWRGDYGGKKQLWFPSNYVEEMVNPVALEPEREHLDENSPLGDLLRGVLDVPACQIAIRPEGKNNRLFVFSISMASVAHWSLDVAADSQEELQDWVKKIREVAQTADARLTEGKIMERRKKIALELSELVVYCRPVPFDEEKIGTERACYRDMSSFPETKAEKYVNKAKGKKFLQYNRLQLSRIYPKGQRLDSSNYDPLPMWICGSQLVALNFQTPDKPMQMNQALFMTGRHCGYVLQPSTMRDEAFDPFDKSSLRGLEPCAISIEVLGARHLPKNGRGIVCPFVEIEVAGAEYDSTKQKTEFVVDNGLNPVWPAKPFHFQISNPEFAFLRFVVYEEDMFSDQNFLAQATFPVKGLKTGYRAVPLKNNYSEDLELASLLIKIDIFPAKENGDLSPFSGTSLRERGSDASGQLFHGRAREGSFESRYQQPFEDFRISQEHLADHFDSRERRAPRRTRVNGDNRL

[2] = biological target: T2, 1-phosphatidylinositol 4,5-bisphosphate phosphodiesterase beta-3 (Homo sapiens, UniProt Q01970); test: Fluorescence-based biochemical high throughput dose response assay to identify inhibitors of phospholipase C isozymes (PLC-B3).
T2 sequence (Q01970 whole entry): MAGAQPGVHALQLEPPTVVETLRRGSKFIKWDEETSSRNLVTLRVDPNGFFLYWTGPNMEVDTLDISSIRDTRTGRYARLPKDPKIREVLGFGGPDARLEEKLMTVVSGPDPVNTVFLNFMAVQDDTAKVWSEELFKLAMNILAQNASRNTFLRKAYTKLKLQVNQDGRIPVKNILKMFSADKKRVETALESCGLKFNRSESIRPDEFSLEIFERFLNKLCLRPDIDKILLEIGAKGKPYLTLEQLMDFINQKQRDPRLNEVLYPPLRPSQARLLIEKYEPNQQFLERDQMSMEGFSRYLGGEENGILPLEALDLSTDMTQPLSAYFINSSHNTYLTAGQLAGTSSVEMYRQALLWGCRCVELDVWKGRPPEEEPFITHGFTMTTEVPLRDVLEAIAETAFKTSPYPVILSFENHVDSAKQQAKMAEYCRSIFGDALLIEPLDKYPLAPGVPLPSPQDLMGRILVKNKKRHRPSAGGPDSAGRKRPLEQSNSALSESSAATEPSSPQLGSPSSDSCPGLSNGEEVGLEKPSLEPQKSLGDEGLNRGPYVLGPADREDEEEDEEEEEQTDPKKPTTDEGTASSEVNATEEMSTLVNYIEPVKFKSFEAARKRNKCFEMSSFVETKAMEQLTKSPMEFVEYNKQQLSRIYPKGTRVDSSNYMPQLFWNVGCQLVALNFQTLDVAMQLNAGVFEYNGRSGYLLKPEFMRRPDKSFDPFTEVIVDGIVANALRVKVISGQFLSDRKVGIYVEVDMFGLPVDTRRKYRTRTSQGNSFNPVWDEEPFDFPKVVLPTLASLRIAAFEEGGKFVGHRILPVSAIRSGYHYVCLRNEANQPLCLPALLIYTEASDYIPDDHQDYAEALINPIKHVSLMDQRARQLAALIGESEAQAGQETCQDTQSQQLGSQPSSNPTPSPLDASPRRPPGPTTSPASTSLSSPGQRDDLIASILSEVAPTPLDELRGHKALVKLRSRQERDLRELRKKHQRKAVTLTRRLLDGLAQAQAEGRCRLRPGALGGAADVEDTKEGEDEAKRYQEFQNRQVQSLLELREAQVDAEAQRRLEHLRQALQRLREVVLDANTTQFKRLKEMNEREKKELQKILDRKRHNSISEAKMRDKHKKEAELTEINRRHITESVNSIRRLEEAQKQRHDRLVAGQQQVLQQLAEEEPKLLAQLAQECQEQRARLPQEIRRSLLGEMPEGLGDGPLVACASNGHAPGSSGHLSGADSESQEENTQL

[3] = biological target: Mitogen-activated protein kinase 10 (Homo sapiens, UniProt P53779); test: Dose response biochemical screening assay for inhibitors of c-Jun N-Terminal Kinase 3 (JNK3). [Related pubchem assays: 746 ]
Mitogen-activated protein kinase 10, sequence (P53779 whole entry): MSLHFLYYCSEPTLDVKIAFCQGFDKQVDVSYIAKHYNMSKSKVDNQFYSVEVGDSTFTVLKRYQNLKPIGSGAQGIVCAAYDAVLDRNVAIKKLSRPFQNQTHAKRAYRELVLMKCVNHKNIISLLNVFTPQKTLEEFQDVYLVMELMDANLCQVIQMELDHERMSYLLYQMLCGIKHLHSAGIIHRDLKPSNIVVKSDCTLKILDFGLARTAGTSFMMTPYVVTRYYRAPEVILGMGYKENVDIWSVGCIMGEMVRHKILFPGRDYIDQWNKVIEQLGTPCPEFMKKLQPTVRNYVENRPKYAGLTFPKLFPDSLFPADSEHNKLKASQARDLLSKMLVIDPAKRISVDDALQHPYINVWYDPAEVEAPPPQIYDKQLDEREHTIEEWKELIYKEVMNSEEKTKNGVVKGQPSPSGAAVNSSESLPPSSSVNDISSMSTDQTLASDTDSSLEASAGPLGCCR

[4] = P. falciparum late gametocyte killing, dose response, luminescence (AID 1117278); type: functional, cell-based;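 note: gametocytes exposed to compound for 24 hours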
[5] = biological target: T3, Histone-lysine N-methyltransferase NSD2 (Homo sapiens, UniProt O96028); type: biochemical
T3 sequence (O96028 whole entry): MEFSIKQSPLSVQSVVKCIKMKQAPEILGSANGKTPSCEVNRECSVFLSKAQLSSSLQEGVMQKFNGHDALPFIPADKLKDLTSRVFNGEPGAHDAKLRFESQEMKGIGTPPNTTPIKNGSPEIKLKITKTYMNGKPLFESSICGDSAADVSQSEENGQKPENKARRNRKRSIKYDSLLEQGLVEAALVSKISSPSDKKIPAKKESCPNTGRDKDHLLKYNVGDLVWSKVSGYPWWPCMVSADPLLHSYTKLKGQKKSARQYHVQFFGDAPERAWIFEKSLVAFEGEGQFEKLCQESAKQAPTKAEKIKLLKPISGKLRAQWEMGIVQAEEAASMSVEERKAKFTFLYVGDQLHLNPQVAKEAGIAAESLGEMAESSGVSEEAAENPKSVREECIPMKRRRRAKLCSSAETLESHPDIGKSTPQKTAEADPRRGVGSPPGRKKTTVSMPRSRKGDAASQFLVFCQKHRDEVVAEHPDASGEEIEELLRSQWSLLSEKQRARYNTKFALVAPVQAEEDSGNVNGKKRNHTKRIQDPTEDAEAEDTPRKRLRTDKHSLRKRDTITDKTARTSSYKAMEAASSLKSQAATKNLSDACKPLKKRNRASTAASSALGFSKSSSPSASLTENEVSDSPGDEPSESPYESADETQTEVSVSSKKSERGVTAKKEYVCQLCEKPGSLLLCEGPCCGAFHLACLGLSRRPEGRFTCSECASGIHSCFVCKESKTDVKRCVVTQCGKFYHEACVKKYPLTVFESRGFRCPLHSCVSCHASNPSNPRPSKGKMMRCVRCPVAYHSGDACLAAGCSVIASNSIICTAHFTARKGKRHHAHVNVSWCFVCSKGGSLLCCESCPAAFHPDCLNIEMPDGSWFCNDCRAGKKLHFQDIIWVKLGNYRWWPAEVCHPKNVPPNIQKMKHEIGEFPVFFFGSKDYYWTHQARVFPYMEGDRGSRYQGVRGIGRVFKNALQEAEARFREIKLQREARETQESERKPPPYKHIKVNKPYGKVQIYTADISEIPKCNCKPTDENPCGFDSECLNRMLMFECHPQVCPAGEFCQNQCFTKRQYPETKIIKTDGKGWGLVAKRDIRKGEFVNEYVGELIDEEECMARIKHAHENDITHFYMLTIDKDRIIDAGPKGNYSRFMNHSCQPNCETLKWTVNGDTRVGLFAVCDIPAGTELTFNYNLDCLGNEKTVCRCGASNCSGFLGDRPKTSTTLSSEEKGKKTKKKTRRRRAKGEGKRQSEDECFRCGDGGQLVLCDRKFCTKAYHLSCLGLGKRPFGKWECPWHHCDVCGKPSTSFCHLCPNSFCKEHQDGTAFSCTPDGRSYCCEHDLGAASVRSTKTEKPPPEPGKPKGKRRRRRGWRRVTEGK

[6] = Jurkat T cell cytotoxicity, dose response, cytotoxicity control for P. falciparum gametocyte viability project, luminescence (AID 1117277); type: functional, cell-based;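 note: potency reflects loss of cellular ATP meaning fewer viable cells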
[7] = biological target: Paired box protein Pax-8 (Homo sapiens, UniProt Q06710); test: inhibitors of PAX8-driven TPO luciferase reporter, dose response, RMG-I cells, cherry-pick (AID 687027); type: functional, cell-based;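 note: luciferase reporter driven by Pax8 target thyroperoxidase promoter measured by SteadyGlo luminescence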
Paired box protein Pax-8, sequence (Q06710 whole entry): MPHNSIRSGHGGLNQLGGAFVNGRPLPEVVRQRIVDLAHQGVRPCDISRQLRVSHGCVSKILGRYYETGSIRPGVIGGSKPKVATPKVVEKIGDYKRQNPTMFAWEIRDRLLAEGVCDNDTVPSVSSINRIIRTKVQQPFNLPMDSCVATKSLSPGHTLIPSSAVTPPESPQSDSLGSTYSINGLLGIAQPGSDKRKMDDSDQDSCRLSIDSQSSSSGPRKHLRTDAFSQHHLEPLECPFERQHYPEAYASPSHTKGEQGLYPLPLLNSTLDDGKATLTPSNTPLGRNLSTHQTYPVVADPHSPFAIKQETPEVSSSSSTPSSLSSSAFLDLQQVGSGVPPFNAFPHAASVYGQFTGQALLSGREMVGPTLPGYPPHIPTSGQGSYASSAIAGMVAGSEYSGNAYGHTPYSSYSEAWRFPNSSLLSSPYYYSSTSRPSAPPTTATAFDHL

[8] = cytotoxicity in OVCAR8 ovarian cancer cells, dose response, PAX8 project, cell-based, plate reader, dry powder samples (AID 743197); type: functional; conditions: OVCAR-8
[9] = NIH:OVCAR-3 ovarian cancer cell cytotoxicity, dose response, PAX8 inhibitor project, plate reader, dry powder samples (AID 743044); type: functional, cell-based
[10] = biological target: T4, Estrogen receptor beta (Homo sapiens, UniProt Q92731); test: ERβ–SRC-3 coactivator interaction inhibitors, confirmation, orthogonal assay, biochemical, ELISA, streptavidin-HRP readout (AID 1060)
T4 sequence (Q92731 whole entry): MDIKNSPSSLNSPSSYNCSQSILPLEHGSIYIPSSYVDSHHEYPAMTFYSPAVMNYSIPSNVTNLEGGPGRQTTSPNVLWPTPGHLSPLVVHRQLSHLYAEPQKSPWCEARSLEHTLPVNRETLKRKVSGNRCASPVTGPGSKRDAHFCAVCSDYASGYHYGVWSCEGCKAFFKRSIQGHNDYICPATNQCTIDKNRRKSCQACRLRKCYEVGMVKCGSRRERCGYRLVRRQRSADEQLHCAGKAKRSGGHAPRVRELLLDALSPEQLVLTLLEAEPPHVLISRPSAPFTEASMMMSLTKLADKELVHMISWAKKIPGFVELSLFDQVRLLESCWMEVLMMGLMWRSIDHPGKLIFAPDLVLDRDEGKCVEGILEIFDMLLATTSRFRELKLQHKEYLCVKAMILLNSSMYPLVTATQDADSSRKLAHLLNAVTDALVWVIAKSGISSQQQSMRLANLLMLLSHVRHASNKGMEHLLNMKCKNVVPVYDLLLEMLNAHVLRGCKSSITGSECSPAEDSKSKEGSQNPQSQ

[11] = biological target: DNA dC->dU-editing enzyme APOBEC-3A (Homo sapiens, UniProt P31941); test: Dose Response confirmation of small molecule APOBEC3A DNA Deaminase Inhibitors via a fluorescence-based single-stranded DNA deaminase assay. [Related pubchem assays (depositor defined):AID493011, AID493024]; type: functional
DNA dC->dU-editing enzyme APOBEC-3A, sequence (P31941 whole entry): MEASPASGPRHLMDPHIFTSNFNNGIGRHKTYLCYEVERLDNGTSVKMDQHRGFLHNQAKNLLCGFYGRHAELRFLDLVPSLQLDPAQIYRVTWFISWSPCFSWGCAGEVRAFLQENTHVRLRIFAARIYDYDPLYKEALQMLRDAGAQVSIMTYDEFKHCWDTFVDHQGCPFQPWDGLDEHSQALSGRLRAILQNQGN

[12] = biological target: DNA dC->dU-editing enzyme APOBEC-3G (Homo sapiens, UniProt Q9HC16); type: functional;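 note: Dose-response counterscreen measuring inhibition of APOBEC3G DNA deaminase activity, run while confirming APOBEC3A inhibitors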
DNA dC->dU-editing enzyme APOBEC-3G, sequence (Q9HC16 whole entry): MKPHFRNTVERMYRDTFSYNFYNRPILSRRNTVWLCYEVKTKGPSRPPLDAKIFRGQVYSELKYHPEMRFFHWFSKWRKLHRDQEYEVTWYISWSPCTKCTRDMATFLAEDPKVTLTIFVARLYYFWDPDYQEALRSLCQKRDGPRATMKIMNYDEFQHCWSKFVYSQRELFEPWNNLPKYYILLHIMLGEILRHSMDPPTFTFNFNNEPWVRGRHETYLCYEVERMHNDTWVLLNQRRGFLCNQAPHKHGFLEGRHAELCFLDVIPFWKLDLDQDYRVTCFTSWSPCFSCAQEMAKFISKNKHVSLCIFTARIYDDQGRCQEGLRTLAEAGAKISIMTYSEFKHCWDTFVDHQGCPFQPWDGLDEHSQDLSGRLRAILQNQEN

[13] = biological target: T4, Estrogen receptor beta
[14] = Artemis endonuclease inhibitor potency, dose response, biochemical, fluorescence intensity (AID 720701); type: functional;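 note: Artemis endonuclease enzyme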
[15] = THP-1 cell cytotoxicity, dose response, cytotoxicity control for Vif-APOBEC3G degradation inhibitor project, THP-1 cells (AID 1117359); type: functional; conditions: Human immunodeficiency virus 1, THP-1
[16] = HEp-2 cell cytotoxicity, dose response, cytotoxicity control for RSV inhibitor project, HTS (AID 2410); type: functional; conditions: human respiratory syncytial virus

Compound: CCCCCNc1nc(NCCCO)c(C#N)c2c1CN(C)CC2
IC50 [4]: > 109 µM (inactive) | AC50 [5]: > 20 µM (inactive) | IC50 [6]: > 83.3 µM (inactive)

Compound: C[C@@H]1CCCCO[C@H](CN(C)Cc2ccc(C(F)(F)F)cc2)[C@H](C)CN([C@H](C)CO)C(=O)c2cc(NC(=O)c3ccccc3)ccc2O1
AC50 [7]: 10.1 µM (active) | AC50 [8]: 45.2 µM (active) | AC50 [9]: 43.7 µM (active)

Compound: O=C1N=C(S)SC1=C1CCCC1
IC50 [10]: 0.24 µM (not active) | IC50 [1]: 47.5 µM (inactive) | IC50 [11]: 5.61 µM (active) | IC50 [2]: > 122 µM (inactive) | IC50 [12]: 7.39 µM (active) | IC50 [13]: > 50 µM (not active)

Compound: Cc1nnc2sc(SCC(=O)Nc3ccc(Br)cc3)nn2c1=O
IC50 [4]: > 109 µM (inactive) | IC50 [6]: > 83.3 µM (inactive)

Compound: CCOC(=O)c1c(NC(=O)CSc2nnc(-c3ccco3)o2)sc(C)c1C
IC50 [4]: > 109 µM (inactive) | IC50 [6]: > 83.3 µM (inactive)

Further lines, with some results ahead:

IC50 [1]: 108 µM (inactive) | IC50 [2]: > 122 µM (inactive)
Compound: O=C(NCc1ccccc1)c1[nH]nnc1-c1ccccc1O

IC50 [3]: 76 µM (not active)
Compound: O=c1[nH]c(=S)c2c(n1-c1ccccc1)CCC2

IC50 [1]: > 123 µM (inactive) | IC50 [2]: > 123 µM (inactive)
Compound: FC(F)(F)c1cnc(Oc2ccccc2-c2nnc(-c3ccc(Cl)cc3)o2)c(Cl)c1

IC50 [3]: 34.8 µM (not active)
Compound: COC(=O)c1c(NC(=O)Cc2cccs2)sc(C)c1C

IC50 [14]: > 20 µM (inactive)
Compound: CCOC(=O)N1CCN(Cc2nc(N)nc(Nc3ccc(Oc4ccccc4)cc3)n2)CC1

IC50 [3]: 40 µM (not active)
Compound: CCOC(=O)CSc1nc2c(sc3ccccc32)c(=O)n1CCCN1CCOCC1

IC50 [14]: > 20 µM (inactive)
Compound: CCN=c1ccc(Br)cc(C(=O)/C=C/c2ccc3c(c2)OCO3)c1O
CC50 [15]: 32.6 µM (active) | CC50 [16]: 13.8 µM (active)
